Consider 18 compounds from PMC12374581 (European journal of medicinal chemistry, 2025).

The target in data set [1] is human μ opioid receptor β-arrestin-2 (Homo sapiens, UniProt P35372). The data set can be described thus: cell-based. As to conditions: for Emax: read-out: β-Arrestin Recruitment %Emax ± SEM.
For data set [2], the target named is human μ opioid receptor (OPRM1) (Homo sapiens, UniProt P35372). The data set can be described thus: cell-based. The class given is cell-based. As to conditions: for Emax: OPRM1, read-out: MOR cAMP %Emax ± SEM.
Data set [3] addresses nociceptin receptor (OPRL1) (Homo sapiens, UniProt P41146). In words: cell-based. It is filed as cell-based. As to conditions: for Emax: read-out: NOR cAMP Emax ± SEM (%).
Data set [4] deals with human δ opioid receptor (OPRD1) (Homo sapiens, UniProt P41143). The data set can be described thus: cell-based. The class given is cell-based. To be noted: for Emax: read-out: DOR cAMP Emax ± SEM (%).
Data set [5] is described as follows: in vitro. To be noted: human, microsomes.
Data set [6] in a line: in vitro. To be noted: mouse, microsomes.
Data set [7] concerns B6129/F1 hybrid mice. In words: Naloxone pre-treatment antagonist study in hot plate test. It is filed as in vivo, mouse. As to conditions: naloxone 10 mg/kg pretreatment, agonist 10 mg/kg.
The subject of data set [8] is B6129/F1 hybrid mice. In words: Hot plate test. The class given is in vivo, mouse. As to conditions: for ED50: Mus musculus, read-out: ED50 (antinociception, hot plate); for in vivo agonist profile (antinociception): hot plate, mice; for in vivo agonist profile (antinociception) / Emax (maximal possible effect at the highest dose, hot plate): i.p.; for Emax (maximal possible effect at the highest dose, hot plate): cumulative doses, B6129/F1 mice, nonlinear regression.

The nature of data set [9]: Solubility observed for in vivo dosing.
In data set [10] the target is κ opioid receptor (OPRK1) (Homo sapiens, UniProt P41145). The data set can be described thus: cell-based. As to conditions: for Emax: read-out: KOR cAMP Emax ± SEM (%).
Setting [11] is: read-out: β-Arrestin Recruitment EC50.

Where “and” joins values, the source holds several entries; their conditions need not be identical. Equal values may be shown once. Read-outs that look alike come from different tables or passages of the source.

human μ opioid receptor β-arrestin-2, sequence (P35372 whole entry): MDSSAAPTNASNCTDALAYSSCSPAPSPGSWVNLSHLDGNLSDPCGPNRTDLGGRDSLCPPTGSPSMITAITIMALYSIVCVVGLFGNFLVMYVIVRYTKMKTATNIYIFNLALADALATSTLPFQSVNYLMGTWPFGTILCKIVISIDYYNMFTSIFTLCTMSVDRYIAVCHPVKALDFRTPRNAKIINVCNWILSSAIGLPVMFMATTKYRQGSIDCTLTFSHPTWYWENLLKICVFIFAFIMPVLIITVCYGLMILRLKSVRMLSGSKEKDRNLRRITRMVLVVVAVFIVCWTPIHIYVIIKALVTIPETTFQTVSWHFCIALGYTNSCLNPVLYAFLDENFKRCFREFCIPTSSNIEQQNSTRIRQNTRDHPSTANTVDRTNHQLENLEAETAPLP
human μ opioid receptor (OPRM1), sequence (P35372 whole entry): as above
nociceptin receptor (OPRL1), sequence (P41146 whole entry): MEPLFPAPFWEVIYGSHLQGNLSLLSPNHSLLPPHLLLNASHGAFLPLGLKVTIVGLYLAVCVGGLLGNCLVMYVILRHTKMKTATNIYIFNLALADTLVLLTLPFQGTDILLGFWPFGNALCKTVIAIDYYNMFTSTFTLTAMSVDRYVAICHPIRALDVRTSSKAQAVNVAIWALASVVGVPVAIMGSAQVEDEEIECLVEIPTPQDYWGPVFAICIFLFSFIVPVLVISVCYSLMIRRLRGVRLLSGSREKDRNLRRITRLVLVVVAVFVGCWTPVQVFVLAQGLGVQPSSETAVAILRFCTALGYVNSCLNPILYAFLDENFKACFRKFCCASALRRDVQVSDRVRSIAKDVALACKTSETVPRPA
κ opioid receptor (OPRK1), sequence (P41145 whole entry): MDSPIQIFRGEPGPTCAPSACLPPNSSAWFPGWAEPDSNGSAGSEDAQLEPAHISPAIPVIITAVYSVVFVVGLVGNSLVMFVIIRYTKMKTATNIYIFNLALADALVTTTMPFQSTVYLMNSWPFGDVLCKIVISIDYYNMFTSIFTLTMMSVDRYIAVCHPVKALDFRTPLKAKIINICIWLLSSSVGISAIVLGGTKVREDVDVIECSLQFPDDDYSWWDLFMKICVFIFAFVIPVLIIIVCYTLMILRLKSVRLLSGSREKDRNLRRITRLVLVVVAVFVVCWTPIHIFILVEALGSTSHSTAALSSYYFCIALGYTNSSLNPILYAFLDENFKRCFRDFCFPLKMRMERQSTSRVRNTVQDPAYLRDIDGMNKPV
human δ opioid receptor (OPRD1), sequence (P41143 whole entry): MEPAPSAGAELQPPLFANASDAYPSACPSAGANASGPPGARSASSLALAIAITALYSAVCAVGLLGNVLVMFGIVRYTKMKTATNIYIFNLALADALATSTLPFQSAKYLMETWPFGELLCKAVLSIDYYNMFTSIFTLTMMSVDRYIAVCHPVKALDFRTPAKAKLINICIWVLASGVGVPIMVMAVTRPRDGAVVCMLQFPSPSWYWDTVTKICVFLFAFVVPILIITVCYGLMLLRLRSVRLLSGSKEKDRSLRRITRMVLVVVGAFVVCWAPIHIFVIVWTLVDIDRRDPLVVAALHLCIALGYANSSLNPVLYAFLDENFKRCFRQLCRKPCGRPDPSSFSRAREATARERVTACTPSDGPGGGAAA

On to `C[C@@H](NC(=O)[C@@H](N)Cc1ccc(O)cc1)C(=O)NCC(=O)N(C)[C@@H](Cc1ccccc1)C(=O)NCCO` [DAMGO, reference compound], for which the Emax in [1] turned out to be 102.3 ± 0.2%.
As for `FC(F)c1cccc(N2C3CCC2CN(CCCc2ccccc2)C3)c1` [Compound 9, 8-(3-(Difluoromethyl)phenyl)-3-(3-phenylpropyl)-3,8-diazabicyclo[3.2.1]octane], the EC50 is 13 nM in [2], above 10 µM in data set [1] and above 10 µM in [1] (setting [11]). Further, the Emax in data set [2] worked out at 102.6 ± 1%.
As to `NC(=O)c1cc(N2C3CCC2CN(CCCc2ccccc2)C3)ccc1F` [Compound 18, 2-Fluoro-5-(3-(3-phenylpropyl)-3,8-diazabicyclo[3.2.1]octan-8-yl)benzamide], the EC50 in [2] was 10 nM; in data set [3] (NOR cAMP EC50 (nM)), 25 nM; in [3] (NOR cAMP pEC50± SEM), 25.1 nM; in [4] it was 160 nM; in [1], above 10 µM; in [1] (setting [11]), above 10 µM. The Emax in [2] turned out to be 100.2 ± 0.5%; in data set [3], 41.9 ± 19.3%; in data set [4], 56.2 ± 6.2%.
On to `NC(=O)c1cc(N2C3CCC2CN(CCCc2ccccc2)C3)ccc1O` [Compound 16, 2-Hydroxy-5-(3-(3-phenylpropyl)-3,8-diazabicyclo[3.2.1]octan-8-yl)benzamide], for which the EC50 in data set [2] was 4 nM; in [3] (NOR cAMP EC50 (nM)) it was above 10000 nM; in data set [3] (NOR cAMP pEC50± SEM), above 10000 nM; in [4] it was 16 nM; in [1], above 10 µM; in data set [1] (setting [11]), above 10 µM. Further, the Emax was 60.9 ± 3.9% in [2], 0% in [3], 34.8 ± 3% in data set [4] and 0% in data set [1]. In addition, the “agonist activity at NORs (in words)” value in data set [3] is “no agonist activity”. Besides, the half-life in the data set “in vitro [5]” was 13 min; in “in vitro [6]”, 2.1 min.
On to `O=S(=O)(Nc1cccc(N2C3CCC2CN(CCCc2ccccc2)C3)c1)C1CC1` [Compound 12, N-(3-(3-(3-Phenylpropyl)-3,8-diazabicyclo[3.2.1]octan-8-yl)phenyl)cyclopropane-sulfonamide], for which the 50% effective concentration (EC50) in data set [2] was 0.5 nM; in data set [3] (NOR cAMP EC50 (nM)) it was above 10000 nM; in [3] (NOR cAMP pEC50± SEM), above 10000 nM; in data set [4], 1.6 nM; in data set [10], above 10 µM; in data set [1] it was 0.025 µM. For the same compound, the Emax in data set [2] came to 98.8 ± 0.4%; in data set [3] it was 0%; in data set [4] it was 71 ± 4.7%; in [10], 0%; in data set [1], 4.3 ± 0.2%. Besides, in the data set on B6129/F1 hybrid mice [7], the “effect of naloxone pretreatment on antinociceptive effects” value was “antagonized by naloxone”. Further, the ED50 in the data set with B6129/F1 hybrid mice [8] (ip) is 2.8 mg/kg. Also, the “in vivo agonist profile (antinociception)” value with B6129/F1 hybrid mice [8] is “partial agonists”. Further, in the data set on B6129/F1 hybrid mice [8], the “Emax (maximal possible effect at the highest dose, hot plate)” value was 33.45 % MPE and 33 % MPE. Besides, the “solubility (in words)” value in data set [9] was “poorly soluble”. In addition, the half-life in “in vitro [5]” amounted to 35.6 min; in “in vitro [6]”, 6.4 min.
As for `Nc1cccc(N2C3CCC2CN(CCCc2ccccc2)C3)c1` [Compound 11, 3-(3-(3-Phenylpropyl)-3,8-diazabicyclo[3.2.1]octan-8-yl)aniline], the EC50 in data set [2] was 0.25 nM; in data set [3] (NOR cAMP EC50 (nM)) it was above 10000 nM; in data set [3] (NOR cAMP pEC50± SEM), above 10000 nM; in data set [4] it was 1.6 nM; in [10], above 10 µM; in data set [1] it was above 10 µM. In [1] (setting [11]), the EC50 is above 10 µM. The Emax in data set [2] was determined as 104 ± 2.4%; in data set [3] it was 0%; in data set [4] it was 71.1 ± 3.6%; in data set [10], 0%; in data set [1], 0%. The “effect of naloxone pretreatment on antinociceptive effects” value with B6129/F1 hybrid mice [7] is recorded as “antagonized by naloxone”. The ED50 with B6129/F1 hybrid mice [8] (ip) was 0.849 mg/kg. Besides, in the data set with B6129/F1 hybrid mice [8], the “in vivo agonist profile (antinociception)” value is on record as “partial agonists”. Moreover, in the data set with B6129/F1 hybrid mice [8], the “Emax (maximal possible effect at the highest dose, hot plate)” value was 43.86 % MPE and 44 % MPE. For the same compound, in data set [9], the “solubility (in words)” value was “poorly soluble”. The half-life came to 36.5 min in the data set “in vitro [5]” and 3.5 min in the data set “in vitro [6]”.
In the case of `OCc1cccc(N2C3CCC2CN(CCCc2ccccc2)C3)c1` [Compound 3, (3-(3-(3-Phenylpropyl)-3,8-diazabicyclo[3.2.1]octan-8-yl)phenyl)methanol], in [2], the response was half-maximal at 20 nM (EC50) and the Emax turned out to be 102 ± 1.1%.
`NC(=O)c1cccc(N2C3CCC2CN(CCCc2ccccc2)C3)c1F` [Compound 19, 2-Fluoro-3-(3-(3-phenylpropyl)-3,8-diazabicyclo[3.2.1]octan-8-yl)benzamide]: the EC50 is 2.5 nM in data set [2]; 3.2 nM in [3] (NOR cAMP EC50 (nM)); 3.16 nM in data set [3] (NOR cAMP pEC50± SEM); 13 nM in data set [4]; above 10 µM in data set [1]; above 10 µM in data set [1] (setting [11]). Also, the Emax amounted to 101.2 ± 0.6% in data set [2], 19.5 ± 3.4% in data set [3], 71.4 ± 1.8% in data set [4] and 0% in data set [1].
With `Oc1cc(Cl)cc(N2C3CCC2CN(CCCc2ccccc2)C3)c1` [Compound 6, 3-Chloro-5-(3-(3-phenylpropyl)-3,8-diazabicyclo[3.2.1]octan-8-yl)phenol], in data set [2], the EC50 came to 20 nM and the maximal effect (Emax) was 99.6 ± 1.1%.
On to `Oc1ccc(N2C3CCC2CN(CCCc2ccccc2)C3)cc1` [Compound 1, 4-(3-(3-Phenylpropyl)-3,8-diazabicyclo[3.2.1]octan-8-yl)phenol], for which, in [2], the EC50 amounted to 250 nM, the “fold reduction in MOR cAMP potency compared to atoxifent” value is listed as 700 fold and the Emax was 58.7 ± 5.8%. Besides, in data set [1], the EC50 was above 10 µM and the Emax worked out at 0%. Also, the EC50 in data set [1] (setting [11]) was above 10 µM.
In the case of `NC(=O)c1ccc(N2C3CCC2CN(CCCc2ccccc2)C3)cc1` [Compound 15, 4-(3-(3-Phenylpropyl)-3,8-diazabicyclo[3.2.1]octan-8-yl)benzamide], the EC50 in data set [2] and in data set [2] (read-out: MOR cAMP EC50) was above 10000 nM throughout.
With `Oc1cc(F)cc(N2C3CCC2CN(CCCc2ccccc2)C3)c1` [Compound 8, 3-Fluoro-5-(3-(3-phenylpropyl)-3,8-diazabicyclo[3.2.1]octan-8-yl)phenol], the EC50 was 0.79 nM in data set [2], above 10 µM in [1] and above 10 µM in data set [1] (setting [11]). The Emax in data set [2] worked out at 99.9 ± 0.6%; in data set [1], 0%. Moreover, the half-life in “in vitro [5]” stood at 26.6 min; in the data set “in vitro [6]”, 3.3 min.
Regarding `c1ccc(CCCN2CC3CCC(C2)N3c2cccc(-c3ncco3)c2)cc1` [Compound 20, 2-(3-(3-(3-Phenylpropyl)-3,8-diazabicyclo[3.2.1]octan-8-yl)phenyl)oxazole], in [2], the response was half-maximal at 320 nM (EC50) and the Emax turned out to be 100 ± 0.1%.
Consider `NC(=O)c1ccccc1N1C2CCC1CN(CCCc1ccccc1)C2` [Compound 14, 2-(3-(3-Phenylpropyl)-3,8-diazabicyclo[3.2.1]octan-8-yl)benzamide], for which, in data set [2], it took 3.2 nM to reach a half-maximal effect (EC50), the “fold decrease in MOR cAMP activity compared to 13” value was around 14 fold and the Emax was 101.6 ± 0.6%. Further, in [1], a half-maximal response (EC50) required 0.7 µM and the Emax amounted to 26.5 ± 2.4%.
For `OC1(c2cccc(N3C4CCC3CN(CCCc3ccccc3)C4)c2)COC1` [Compound 5, 3-(3-(3-(3-Phenylpropyl)-3,8-diazabicyclo[3.2.1]octan-8-yl)phenyl)oxetan-3-ol], in [2], the EC50 came to 63 nM and the Emax was 102.6 ± 0.5%.
As for `CC(C)(O)c1cccc(N2C3CCC2CN(CCCc2ccccc2)C3)c1` [Compound 4, 2-(3-(3-(3-Phenylpropyl)-3,8-diazabicyclo[3.2.1]octan-8-yl)phenyl)propan-2-ol], in data set [2], the EC50 was 250 nM, the “fold decrease in MOR cAMP activity compared to 3” value came out at 12 fold and the maximum response (Emax) was 107.8 ± 0.9%.
As to Buprenorphine [reference compound], in the data set on B6129/F1 hybrid mice [8] (mouse, in vivo, ip), the “ED50 (antinociception, hot plate)” value was 0.6441 mg/kg.
For the compound `O=[N+]([O-])c1cccc(N2C3CCC2CN(CCCc2ccccc2)C3)c1` [Compound 10, 8-(3-Nitrophenyl)-3-(3-phenylpropyl)-3,8-diazabicyclo[3.2.1]octane], the EC50 in [2] was 10 nM; in data set [1] it was above 10 µM; in data set [1] (setting [11]) it was above 10 µM. In addition, the Emax in data set [2] was determined as 100.6 ± 0.4%; in [1] it was 0%.
